Here are results for four compounds from patent US5538712A, “Cyclopentadienylcarbonyl 99MTC complexes, process for their production as well as their use in diagnostics” (Institut Fur Diagnostikforschung GmbH/an der Freien …, priority 1990, dated 1996).

Where two headings read alike, the source gives them in different places.

Data set [1] can be described thus: Chemical stability, decomposition by chromatography. In kind it is physicochemical. To be noted: after 24 hours, chromatographically. From the text:
This lipophilic ^99m Tc-compound can be obtained in pure form by elution of the corresponding silica gel fraction (RF =0.36), e.g., with ethanol. The radiochemical purity is established by rechromatography of the eluate.

Data set [2] can be described thus: Organ distribution in mice of 99mTc-acetylcymantrene. In kind it is in vivo. On the procedure:
(§1) The organ distributions in mice and rats as well as partially in rabbits were tested by the technetium-labeled cytectrene derivatives. The organ distribution of the ^99m Tc-labeled cytectrene derivatives is a function of the substituent on the cyclopentadienyl ring system.

Data set [3] in a line: In vivo SPECT study of cerebral blood flow in rabbits. Also on record: species or system rabbits (New Zealander). To be noted: for contrast [brain/background]: rabbit SPECT, 8 minutes p.i., 15 minutes p.i.; for contrast [brain/background] / cerebral uptake: HM-PAO 59 MBq, cytectrene 14 MBq; for cerebral uptake: rabbit, i.v., test from 8 minutes p.i., from 15 minutes p.i., 2400 seconds. On the procedure:
In an in vivo study on rabbits (New Zealander, breeding by Schering AG Berlin, approximately 4 kg, male), the cerebral blood flow of commercially available HM-PAO was compared with the N-methyl-piperidin-4-ol-cytectrenecarboxylic acid ester (produced analogously to example 6).
The study was made with a SPECT camera of Apex 409 type.
After nembutal anesthesia, the animal was intravenously administered 1 ml of an isotonic, aqueous, sterile solution of ^99m Tc-HMPAO or said cytectrene derivative.
The recording technique and the results are described by the following table.

The conditions of data set [4]: clinical use, because of insufficient stability; cited from earlier work.
For data set [5] the following is noted: cited from earlier work.
A short description of data set [6]: Organ distribution of Tc-labeled cytectrene derivatives vs pertechnetate (FIG. 1). The data set is classed as in vivo, mice and rats, partially rabbits. The note with it: pertechnetate for comparison. On the procedure: as §1
FIG. 1 indicates the organ distribution of various cytectrene derivatives. For comparison, the organ distribution of pertechnetate was also recorded in this table. From the organ concentrations, it can clearly be recognized that the organ distribution of the cytectrene derivatives drastically differs from the distribution after administration of pertechnetate. With pertechnetate, the organ with the highest radioactivity concentration is blood (2.6% of dose/% body weight). On the other hand, the ^99m Tc cytectrene derivatives show a pronounced affinity for other, respectively different organs. The affinity for the individual organ is clearly dependent on the side chain of the cytectrene compound.

Data set [7] is described as follows: 99mTc concentration in rat brain and brain/blood concentration quotient (FIGS. 2 and 3). The data set is classed as in vivo. The method, then: FIG. 2 graphically illustrates the results of tests on ^99m Tc concentration in the brain (% dose/% weight). In the experiments, the rats (n=4) intravenously received about 5 μCi of the Tc-99-labeled ester dissolved in 0.1 ml of EtOH/0.9% NaCl per animal. The esters, i.e., 4-pip-ester, 3-pip-ester and quin.-ester, were obtained from cytectrene-carboxylic acid and the following, respectively: 4-hydroxy-N-(methyl)-piperidine, 3-hydroxy-N-(methyl)-piperidine and 3-quinuclidinol. 15 minutes after HM-PAO administration, the brain concentration is at 1.7% dose/% weight. […] The rats (n=4) intravenously received about 5 μCi of the Tc-99-labeled ester dissolved in 0.1 ml of EtOH/0.9% NaCl per animal. The esters tested were obtained from cytectrenecarboxylic acid and 4-hydroxy-N-(methyl)-piperidine, 3-hydroxy-N-(methyl)-piperidine and 3-quinuclidinol, respectively. 15 minutes after HM-PAO administration, the brain/blood quotient is at 1.5:1.

With `CC(=O)[C]1([Tc](=[C]=O)(=[C]=O)=[C]=O)C=CC=C1` [Example 1a, Tc-99m Acetyl-cytectrene], the “chemical stability of the labeled compound” value in data set [1] is given as “chemically stable, since after 24 hours, no decomposition is chromatographically detectable”; in data set [1] (listed as Example 1b), “chemically stable, after 24 hours, no decomposition is chromatographically detectable”. Besides, the organ distribution entry in data set [2] is “preferred concentration in liver and suprarenal glands”.

Turning to `C/C(=N\O)C(C)NCC(C)(C)CNC(C)/C(C)=N/O` (centres unmarked) [HM-PAO, hexamethyl-propylenamine oxime], in data set [3], the “contrast [brain/background]” value is 0.98 and the cerebral uptake is 5.9 % of the administered activity. Also, the “time after labeling within which it has to be administered” value in data set [4] was not above 30 min. The “concentration in the brain” value in data set [5] (comparable measurements for known compounds, L. Bacciottini et al. 1990) is listed as “around 1.7 % dose/% body weight”. Also, in data set [5] (rat, 15 minutes after HM-PAO administration), the “99mTc concentration in the brain” value was 1.7 % dose/% weight.

As to `[O]=[99Tc](=[O])(=[O])[O-]` [pertechnetate, ^99m Tc-pertechnetate], the “radioactivity concentration in blood (organ with the highest concentration)” value in data set [6] was 2.6 % of dose/% body weight.

Turning to “cyclopentadienylcarboxylic acid-(N-methyl-piperidinol)-4-ester-^99m technetium-tricarbonyl complex”, in data set [3], the “contrast [brain/background]” value is 0.98 and the cerebral uptake was 7.5 % of the administered activity. Also, the “visual delimitability of the brain in SPECT tests” value in data set [3] (rabbits, 14 MBq, compared with HM-PAO complex) is “more clearly visual delimitability of the brain in SPECT tests”. In data set [7] (compared with HM-PAO complexes), the “concentration ratio of brain/blood, improvement factor over HM-PAO” value is approximately 10 factor. Besides, the “concentration in the brain” value in data set [7] (i.v., about 5 μCi) is recorded as “about 4 % dose/% body weight”.
